Results reported in PubChem BioAssay AID1963874 (Molecular Pharmacology Branch, DTP, NCI, 2024).

Tested on: 253994-281-T-J1-PDC KRAS-mutant spheroids with HUVEC/MSC, viability
Assay: Anticancer human tumor 253994-281-T-J1-PDC patient-derived colorectal carcinoma cell line growth inhibition [KRAS2]
Details: for IC50: curve of first compound; for viability, T/C: stronger effect = lower value
Summary of the method: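 KRAS-mutant tumor cells were grown as spheroids with HUVEC endothelial cells and human MSCs as stroma. Targeted agents were tested alone and with KRAS pathway inhibitors. Doses started at or near clinical Cmax, or 10 microM, descending half-log.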

[1] = second compound 0.0316 µM, first compound 0.0316 µM
[2] = second compound 0.0316 µM, first compound 0.1 µM
[3] = second compound 0.0316 µM, first compound 0.316 µM
[4] = second compound 0.0316 µM, first compound 1 µM
[5] = second compound 0.0316 µM, first compound 3.16 µM
[6] = second compound 0.1 µM, first compound 0.0316 µM
[7] = second compound 0.1 µM, first compound 0.1 µM
[8] = second compound 0.1 µM, first compound 0.316 µM
[9] = second compound 0.1 µM, first compound 1 µM
[10] = second compound 0.1 µM, first compound 3.16 µM
[11] = second compound 0.316 µM, first compound 0.0316 µM
[12] = second compound 0.316 µM, first compound 0.1 µM
[13] = second compound 0.316 µM, first compound 0.316 µM
[14] = second compound 0.316 µM, first compound 1 µM
[15] = second compound 0.316 µM, first compound 3.16 µM
[16] = second compound 1 µM, first compound 0.0316 µM
[17] = second compound 1 µM, first compound 0.1 µM
[18] = second compound 1 µM, first compound 0.316 µM
[19] = second compound 1 µM, first compound 1 µM
[20] = second compound 1 µM, first compound 3.16 µM
[21] = second compound 3.16 µM, first compound 0.0316 µM
[22] = second compound 3.16 µM, first compound 0.1 µM
[23] = second compound 3.16 µM, first compound 0.316 µM
[24] = second compound 3.16 µM, first compound 1 µM
[25] = second compound 3.16 µM, first compound 3.16 µM
[26] = second compound 0.0316 µM, first compound 10 µM
[27] = second compound 0.1 µM, first compound 10 µM
[28] = second compound 0.316 µM, first compound 10 µM
[29] = second compound 1 µM, first compound 10 µM
[30] = second compound 3.16 µM, first compound 10 µM
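Note: spheroids exposed to agents for seven days before readout.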
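Throughout, for viability, T/C: percent of DMSO vehicle control viability.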

SMILES	IC50 (second compound 0.0316 µM) [µM]	IC50 (second compound 0.1 µM) [µM]	IC50 (second compound 0.316 µM) [µM]	IC50 (second compound 1 µM) [µM]	IC50 (second compound 3.16 µM) [µM]	viability, T/C [1] [%]	viability, T/C [2] [%]	viability, T/C [3] [%]	viability, T/C [4] [%]	viability, T/C [5] [%]	viability, T/C [6] [%]	viability, T/C [7] [%]	viability, T/C [8] [%]	viability, T/C [9] [%]	viability, T/C [10] [%]	viability, T/C [11] [%]	viability, T/C [12] [%]	viability, T/C [13] [%]	viability, T/C [14] [%]	viability, T/C [15] [%]	other results
CC1COCCN1c1cc(-c2ccnn2C)c2ccnc(-c3ccn[nH]3)c2n1 (stereo not given) + C=CC(=O)N1CCN(c2nc(OCC3CCCN3C)nc3c2CCN(c2cccc4cccc(C)c24)C3)CC1CC#N	> 3.16	> 3.16	> 3.16	> 3.16	0.129	101	87.1	67.6	60.5	64.5	93.1	90.7	59.7	66.9	60.6	93	83	53.8	55.7	62.9	viability, T/C (second compound 0.0316 µM, first compound 0.01 µM): 115%; viability, T/C (second compound 0.1 µM, first compound 0.01 µM): 94.1%; viability, T/C (second compound 0.316 µM, first compound 0.01 µM): 117%; viability, T/C (second compound 1 µM, first compound 0.01 µM): 101%; viability, T/C [16]: 94.4%; viability, T/C [17]: 75.5%; viability, T/C [18]: 48.8%; viability, T/C [19]: 51%; viability, T/C [20]: 59.2%; viability, T/C (second compound 3.16 µM, first compound 0.01 µM): 80.2%; viability, T/C [21]: 90%; viability, T/C [22]: 53.3%; viability, T/C [23]: 30.6%; viability, T/C [24]: 37.8%; viability, T/C [25]: 47.8%
CC1OCC2(CCN(c3cnc(Sc4ccnc(N)c4Cl)c(N)n3)CC2)C1N (stereo not given) + C=CC(=O)N1CCN(c2nc(OCC3CCCN3C)nc3c2CCN(c2cccc4cccc(C)c24)C3)CC1CC#N	8.57	> 10	6.83	5.05	0.0824	112	91.7	87.5	81.4	65.4	87.4	100	76.3	78.5	66.1	92.3	100	84.3	72.6	60.9	viability, T/C [26]: 45.3%; viability, T/C [27]: 50.4%; viability, T/C [28]: 44.9%; viability, T/C [16]: 79.3%; viability, T/C [17]: 82.3%; viability, T/C [18]: 76.7%; viability, T/C [19]: 67.4%; viability, T/C [20]: 56.5%; viability, T/C [29]: 41.4%; viability, T/C [21]: 57.2%; viability, T/C [22]: 48.5%; viability, T/C [23]: 39.8%; viability, T/C [24]: 27%; viability, T/C [25]: 20.6%; viability, T/C [30]: 9.67%
Cn1nccc1Nc1nccc(-c2cc3c(s2)C(C)(C)N(CCN2CCOCC2)C3=O)n1 + C=CC(=O)N1CCN(c2nc(OCC3CCCN3C)nc3c2CCN(c2cccc4cccc(C)c24)C3)CC1CC#N	4.45	2.63	2.15	3.04	0.181	92.7	99	89.1	72.4	62.2	92.3	96.3	88.7	73.5	45.6	95.5	103	96.7	67.4	43.1	viability, T/C [26]: 28%; viability, T/C [27]: 29.4%; viability, T/C [28]: 30.4%; viability, T/C [16]: 107%; viability, T/C [17]: 98.9%; viability, T/C [18]: 73.9%; viability, T/C [19]: 80.3%; viability, T/C [20]: 44.6%; viability, T/C [29]: 27.4%; viability, T/C [21]: 64%; viability, T/C [22]: 53.6%; viability, T/C [23]: 45.2%; viability, T/C [24]: 20.8%; viability, T/C [25]: 4.92%; viability, T/C [30]: 1.02%
